The record followed here is ChEMBL document CHEMBL4308875, “Synthesis, antituberculosis studies and biological evaluation of new quinoline derivatives carrying 1,2,4-oxadiazole moiety” (Bioorg Med Chem Lett, 2019).

Common to all, as to type: functional
Common to all, as to conditions: 168 h

The test system of test [1] is Mycobacterium tuberculosis. The test is described as follows: Antitubercular activity against streptomycin-resistant Mycobacterium tuberculosis after 7 days by resazurin dye based colorimetric assay. Background: Alamar Blue is a resazurin reagent that responds to reducing activity.
For test [2], the system named is Mycobacterium tuberculosis. Nature of the test: Antitubercular activity against moxifloxacin-resistant Mycobacterium tuberculosis after 7 days by resazurin dye based colorimetric assay.
For test [3], the system named is Mycobacterium tuberculosis. Nature of the test: Antitubercular activity against d-cycloserine-resistant Mycobacterium tuberculosis after 7 days by resazurin dye based colorimetric assay.
Test [4] concerns Mycobacterium tuberculosis. Nature of the test: Antitubercular activity against isoniazid-resistant Mycobacterium tuberculosis after 7 days by resazurin dye based colorimetric assay.
Test [5] relates to Mycobacterium tuberculosis. Nature of the test: Antitubercular activity against rifampicin-resistant Mycobacterium tuberculosis after 7 days by resazurin dye based colorimetric assay.
For test [6], the system named is Mycobacterium tuberculosis. Nature of the test: Antitubercular activity against kanamycin-resistant Mycobacterium tuberculosis after 7 days by resazurin dye based colorimetric assay.

Converted amounts (≈) assume the structure as drawn.

For `CC(C)c1ccc(-c2nc(CN3CCN(c4ccnc5cc(Cl)ccc45)CC3)no2)cc1`, the minimum inhibitory concentration (MIC) – broadly, the least concentration at which growth counts as inhibited – in test [1] turned out to be 28.6 µg/mL (≈ 63.8 µM); in test [2] it was 4.01 µg/mL (≈ 8.95 µM); in test [3], 3.68 µg/mL (≈ 8.21 µM); in test [4], 4.17 µg/mL (≈ 9.31 µM); in test [5], 3.81 µg/mL (≈ 8.51 µM); in test [6] it was 3.24 µg/mL (≈ 7.23 µM).

For `NNC(=O)c1ccncc1` [ISONIAZID], the MIC is 1 µg/mL (≈ 7.29 µM) in test [1]; 0.49 µg/mL (≈ 3.57 µM) in test [2]; 3.78 µg/mL (≈ 27.6 µM) in test [3]; greater than 8 µg/mL in test [4]; 0.49 µg/mL (≈ 3.57 µM) in test [5]; 0.49 µg/mL (≈ 3.57 µM) in test [6].

With `CC(=O)NC[C@H]1CN(c2ccc(N3CCOCC3)c(F)c2)C(=O)O1` [LINEZOLID], the MIC was 14.1 µg/mL (≈ 41.7 µM) in test [1]; 3.65 µg/mL (≈ 10.8 µM) in test [2]; 10.3 µg/mL (≈ 30.7 µM) in test [3]; 2.33 µg/mL (≈ 6.91 µM) in test [4]; 1.68 µg/mL (≈ 4.98 µM) in test [5]; 1.91 µg/mL (≈ 5.66 µM) in test [6].

Take `COc1c(N2C[C@@H]3CCCN[C@@H]3C2)c(F)cc2c(=O)c(C(=O)O)cn(C3CC3)c12` [MOXIFLOXACIN]: the minimum inhibitory concentration (MIC) in test [1] was 0.94 µg/mL (≈ 2.34 µM); in test [2] it was greater than 16 µg/mL; in test [3] it was 0.46 µg/mL (≈ 1.15 µM); in test [4], 0.49 µg/mL (≈ 1.22 µM); in test [5], 0.42 µg/mL (≈ 1.05 µM); in test [6], 0.21 µg/mL (≈ 0.523 µM).

Take `CO[C@H]1/C=C/O[C@@]2(C)Oc3c(C)c(O)c4c(O)c(c(/C=N/N5CCN(C)CC5)c(O)c4c3C2=O)NC(=O)/C(C)=C\C=C\[C@H](C)[C@H](O)[C@@H](C)[C@@H](O)[C@@H](C)[C@H](OC(C)=O)[C@@H]1C` [RIFAMPIN]: the MIC in test [1] was 0.05 µg/mL (≈ 0.0608 µM); in test [2], 0.23 µg/mL (≈ 0.279 µM); in test [3] it was less than 0.02 µg/mL; in test [4], less than 0.02 µg/mL; in test [5], greater than 4 µg/mL; in test [6], less than 0.02 µg/mL.
